Data reported in patent publication US20140357487A1, “PLANTS HAVING INCREASED TOLERANCE TO HERBICIDES” (BASF SE, priority 2011, published 2014).

Tests used:
[1] = biological target: T1, Arabidopsis HPPD (SEQ ID: 53) (Arabidopsis thaliana, UniProt P93836); assay: HPPD activity assay, Arabidopsis wild-type HPPD; format: biochemical; set-up: key to Normalized tolerance index TI: tolerance index relative to Arabidopsis wild-type HPPD (= 1); settings: for Normalized tolerance index TI: normalized on Arabidopsis wild-type HPPD
T1 construct: His6 (N); made in house; host or cells: E. coli BL21 (DE3)
T1 sequence (P93836 1-445): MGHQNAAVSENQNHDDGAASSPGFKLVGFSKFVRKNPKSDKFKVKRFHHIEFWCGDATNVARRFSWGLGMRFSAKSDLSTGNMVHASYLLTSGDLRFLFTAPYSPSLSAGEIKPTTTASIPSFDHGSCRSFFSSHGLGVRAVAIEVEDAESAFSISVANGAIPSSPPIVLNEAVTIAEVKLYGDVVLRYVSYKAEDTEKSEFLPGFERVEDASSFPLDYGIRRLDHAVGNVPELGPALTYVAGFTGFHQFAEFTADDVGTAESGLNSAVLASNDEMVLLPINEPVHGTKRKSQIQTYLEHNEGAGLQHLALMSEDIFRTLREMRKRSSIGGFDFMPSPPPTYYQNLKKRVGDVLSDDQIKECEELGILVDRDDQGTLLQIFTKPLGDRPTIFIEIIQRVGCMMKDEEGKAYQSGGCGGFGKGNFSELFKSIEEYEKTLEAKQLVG
Protocol: (§1) HPPD produces homogentisic acid and CO2 from 4-hydroxyphenylpyruvate (4-HPP) and O2. The activity assay for HPPD is based on the analysis of homogentisic acid by reversed phase HPLC.
(§2) The assay mixture can contain 150 mM potassium phosphate buffer pH 7.0, 50 mM L-ascorbic acid, 1 μM FeSO4 and 7 μg of purified enzyme in a total volume of 1 ml.
(§3) Inhibitors are dissolved in DMSO (dimethylsulfoxide) to a concentration of 20 mM or 0.5 mM, respectively. From this stock solution serial five-fold dilutions are prepared in DMSO, which are used in the assay. The respective inhibitor solution accounts for 1% of the assay volume. […] After a preincubation of 30 min the reaction is started by adding 4-HPP to a final concentration of 0.1 mM. The reaction is allowed to proceed for 120 min at room temperature. The reaction is stopped by addition of 100 μl of 4.5 M phosphoric acid.
(§4) Activities are normalized by setting the uninhibited enzyme activity to 100%. IC50 values are calculated using non-linear regression.
(§5) The assay mixture can contain 150 mM potassium phosphate buffer pH 7.0, 50 mM L-ascorbic acid, 100 μM Catalase (Sigma-Aldrich), 1 μM FeSO4 and 0.2 units of purified HPPD enzyme in a total volume of 505 μl. 1 unit is defined as the amount of enzyme that is required to produce 1 nmol of HGA per minute at 20° C.
(§6) Inhibitors are dissolved in DMSO (dimethylsulfoxide) to a concentration of 0.5 mM. From this stock solution serial five-fold dilutions are prepared in DMSO, which are used in the assay. The respective inhibitor solution accounts for 1% of the assay volume. […] Activities are normalized by setting the uninhibited enzyme activity to 100%. IC50 values are calculated using non-linear regression.
(§7) Using methods which are described in the above examples or well known in the art, purified, recombinant wildtype HPPD enzymes are characterized with respect to their kinetic properties and sensitivity towards HPPD inhibiting herbicides. Apparent michaelis constants (Km) and maximal reaction velocities (Vmax) are calculated by non-linear regression with the software GraphPad Prism 5 (GraphPad Software, La Jolla, USA) using a substrate inhibition model.
(§8) Field performance of the HPPD enzyme, which is used as a herbicide tolerance trait, may depend not only on its lack of sensitivity towards HPPD inhibiting herbicides but also on its activity. To assess the potential performance of a herbicide tolerance trait a tolerance index (TI) is calculated using the following formula: […]
Easy comparison and ranking of each trait is enabled by normalizing tolerance indexes on Arabidopsis wild-type HPPD.

Hordeum HPPD (SEQ ID: 2) = biological target: T2, Hordeum HPPD (SEQ ID: 2) (Hordeum vulgare, UniProt O48604, A164G/R146V/R147D/R148G); assay: HPPD activity assay, Hordeum wild-type HPPD; format: biochemical; settings: Hordeum HPPD; substrate; read-out: michaelis constant Km (4-HPP)
T2 construct: His (N); made in house; host or cells: E. coli BL21 (DE3)
Protocol: as §1, §2, §3, §4, §5, §6, §7, §8

Avena HPPD = assay: HPPD activity assay, Avena HPPD; format: biochemical, Avena sativa; settings: normalized on Arabidopsis wild-type HPPD
Protocol: as §1, §2
(§9) Inhibitors are dissolved in DMSO (dimethylsulfoxide) to a concentration of 20 mM or 0.5 mM, respectively. From this stock solution serial five-fold dilutions are prepared in DMSO, which are used in the assay. The respective inhibitor solution accounts for 1% of the assay volume. Thus, final inhibitor concentrations range from 200 μM to 2.5 nM or from 5 μM to 63 pM, respectively. After a preincubation of 30 min the reaction is started by adding 4-HPP to a final concentration of 0.1 mM. The reaction is allowed to proceed for 120 min at room temperature. The reaction is stopped by addition of 100 μl of 4.5 M phosphoric acid.
as §4, §5
(§10) Inhibitors are dissolved in DMSO (dimethylsulfoxide) to a concentration of 0.5 mM. From this stock solution serial five-fold dilutions are prepared in DMSO, which are used in the assay. The respective inhibitor solution accounts for 1% of the assay volume. Thus, final inhibitor concentrations range from 5 μM to 320 pM, respectively. Activities are normalized by setting the uninhibited enzyme activity to 100%. IC50 values are calculated using non-linear regression.
as §7, with “model. […] Weighted means (by standard error) of Km and […] values are calculated from at least three independent experiments. […]” for “model.”
as §8

Alopecurus HPPD = assay: HPPD activity assay, Alopecurus HPPD; format: biochemical; settings: normalized on Arabidopsis wild-type HPPD
Protocol: as §1, §2, §9, §4
(§11) The assay mixture can contain 150 mM potassium phosphate buffer pH 7.0, 50 mM L-ascorbic acid, 100 μM Catalase (Sigma-Aldrich), 1 μM FeSO4 and 0.2 units of purified HPPD enzyme in a total volume of 505 μl. […]
(§12) Inhibitors are dissolved in DMSO (dimethylsulfoxide) to a concentration of 0.5 mM. […] IC50 values are calculated using non-linear regression.
as §7, with “model. […] Weighted means (by standard error) of Km and […] values are calculated from at least three independent experiments. […]” for “model.”

Lolium HPPD = assay: HPPD activity assay, Lolium HPPD; format: biochemical; settings: normalized on Arabidopsis wild-type HPPD
Protocol: as §1, §2, §9, §4, §5, §10
as §7, with “model. […] Weighted means (by standard error) of Km and […] values are calculated from at least three independent experiments. […]” for “model.”
as §8

Chlamydomonas HPPD1 = assay: HPPD activity assay, Chlamydomonas HPPD1; format: biochemical, Chlamydomonas reinhardtii; settings: normalized on Arabidopsis wild-type HPPD
Protocol: as §1, §2, §9, §4, §11, §12
as §7, with “model. […] Weighted means (by standard error) of Km and […] values are calculated from at least three independent experiments. […]” for “model.”

[2] = biological target: T3, Arabidopsis HPPD variant M335H, P336A (Arabidopsis thaliana, UniProt P93836, M335H/P336A); assay: HPPD activity assay, Arabidopsis HPPD mutant M335H, P336A; format: biochemical; settings: normalized on Arabidopsis wild-type HPPD
T3 construct: PCR-based site directed mutagenesis of pEXP5-NT/TOPO®-AtHPPD is done; His6 (N); made in house; host or cells: E. coli BL21 (DE3)
Protocol: as §1, §2, §3, §4, §5
Inhibitors are dissolved in DMSO (dimethylsulfoxide) to a concentration of 0.5 mM. […] IC50 values are calculated using non-linear regression. […]
Purified, mutant HPPD enzymes are obtained by the methods described above. […] Apparent michaelis constants (Km) and maximal reaction velocities (Vmax) are calculated by non-linear regression with the software GraphPad Prism 5 (GraphPad Software, La Jolla, USA) using a substrate inhibition model.
as §8, with “of the optimized HPPD enzyme,” for “of the HPPD enzyme,”, “herbicide tolerance trait may depend” for “herbicide tolerance trait, may depend”

Sorghum HPPD = assay: HPPD activity assay, Sorghum HPPD; format: biochemical; settings: normalized on Arabidopsis wild-type HPPD
Protocol: as §1, §2, §9, §4, §11, §12
as §7, with “model. […] Weighted means (by standard error) of Km and […] values are calculated from at least three independent experiments. […]” for “model.”

Poa HPPD = assay: HPPD activity assay, Poa HPPD; format: biochemical; settings: normalized on Arabidopsis wild-type HPPD
Protocol: as §1, §2, §9, §4, §11, §12
as §7, with “model. […] Weighted means (by standard error) of Km and […] values are calculated from at least three independent experiments. […]” for “model.”

T3 sequence (P93836 whole entry M335H/P336A): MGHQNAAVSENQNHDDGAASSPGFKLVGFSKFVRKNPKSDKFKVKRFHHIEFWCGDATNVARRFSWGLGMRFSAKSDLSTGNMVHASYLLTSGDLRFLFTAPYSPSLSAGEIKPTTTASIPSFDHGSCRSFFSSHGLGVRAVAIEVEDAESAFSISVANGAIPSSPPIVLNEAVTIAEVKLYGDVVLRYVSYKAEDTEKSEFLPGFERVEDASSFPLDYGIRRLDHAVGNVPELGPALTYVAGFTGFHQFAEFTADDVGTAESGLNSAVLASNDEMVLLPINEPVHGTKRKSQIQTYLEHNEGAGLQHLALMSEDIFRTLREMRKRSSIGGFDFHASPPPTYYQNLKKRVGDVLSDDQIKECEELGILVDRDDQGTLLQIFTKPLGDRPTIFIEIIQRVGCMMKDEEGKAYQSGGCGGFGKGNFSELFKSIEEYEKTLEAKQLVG
T2 sequence (O48604 whole entry R146V/R147D/R148G/A164G): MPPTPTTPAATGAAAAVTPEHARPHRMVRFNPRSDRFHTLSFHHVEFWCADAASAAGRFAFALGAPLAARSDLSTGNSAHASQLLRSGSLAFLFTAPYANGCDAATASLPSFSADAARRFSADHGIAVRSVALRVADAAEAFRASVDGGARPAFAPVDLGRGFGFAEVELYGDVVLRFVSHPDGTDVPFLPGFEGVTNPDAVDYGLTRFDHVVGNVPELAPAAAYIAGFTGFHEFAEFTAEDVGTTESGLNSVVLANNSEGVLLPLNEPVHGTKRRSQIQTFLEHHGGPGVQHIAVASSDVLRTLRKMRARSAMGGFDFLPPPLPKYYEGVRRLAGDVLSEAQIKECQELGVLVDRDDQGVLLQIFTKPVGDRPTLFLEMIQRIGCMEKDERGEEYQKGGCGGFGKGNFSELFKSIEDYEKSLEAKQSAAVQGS

SMILES | Km ([1]; Arabidopsis HPPD, substrate, read-out: michaelis constant Km (4-HPP)) | Km (Hordeum HPPD (SEQ ID: 2)) | Normalized tolerance index TI (Avena HPPD) | Normalized tolerance index TI (Alopecurus HPPD) | Normalized tolerance index TI (Lolium HPPD) | Normalized tolerance index TI (Chlamydomonas HPPD1) | Normalized tolerance index TI ([1]; Arabidopsis HPPD Wildtype, Table 15) | Normalized tolerance index TI ([1]; Arabidopsis HPPD, Table 12) | Normalized tolerance index TI [2] | Normalized tolerance index TI (Sorghum HPPD) | Normalized tolerance index TI (Poa HPPD)
O=C(O)C(=O)Cc1ccc(O)cc1 [Inhibitor 4-HPP, 4-hydroxyphenylpyruvate, reference compound] | 13 µM | 26 µM |  |  |  |  |  |  |  |  | 
CC1CC(c2c(Cl)ccc(C3=C(O)c4ncccc4CS3(=O)=O)c2Cl)=NO1 (centres unmarked) [Inhibitor 4, 7-[2,4-dichloro-3-(5-methyl-4,5-dihydroisoxazol-3-yl)phenyl]-6,6-dioxo-5H-thiopyrano[4,3-b]pyridin-8-ol] |  |  | 5.3 | 3.5 | 4.5 | 1.3 | 1 | 1 | 7.4 | 3.7 | 1.2
